Results: patent US6955873B1, “Diagnosis and treatment system for reward deficiency syndrome (RDS) and related behaviors” (priority 1999, dated 2005)
“Also recorded” adds a separate entry of the source. Where two headings read alike, the source gives them in different places.

Assays:
[1] = test system: subjects diagnosed with ADHD; settings: study in the early 70's; cited from earlier work
[2] = test system: animals and humans; settings: cited from earlier work
[3] = test system: swine; settings: in vivo; cited from earlier work
[4] = test system: animals; settings: cited from earlier work; for rewarding actions: dopamine receptor agonists
[5] = test system: neurons; settings: cited from earlier work
[6] = test system: animals; settings: cited from earlier work
[7] = cited from earlier work; for duration of action: in vivo
[8] = in vivo; cited from earlier work
[9] = test system: synaptosomes in rat brain slices; settings: cited from earlier work
[10] = test system: patients with age-related memory disorders; settings: certain patients; not substantiated by clinical trials; cited from earlier work
[11] = test system: rhinovirus; settings: reported 1974; cited from earlier work
[12] = test system: aminotripepidase; settings: cited from earlier work
[13] = test system: PMDD patients; settings: 1200 mg of calcium; cited from earlier work
[14] = molecular target: mu-opioid receptor (Mus musculus, UniProt P42866); settings: spinal cord, wild-type mice; cited from earlier work
[15] = test system: mice; settings: cited from earlier work
[16] = test system: humans; assay: Blood pressure in humans; format: in vivo, human; settings: single dose
[17] = test system: animals and man; settings: cited from earlier work; for analgesia: used separately
[18] = test system: pain patients; settings: cited from earlier work
[19] = test system: spontaneously hypertensive rats (SHR); assay: Blood pressure in spontaneously hypertensive rats (SHR); settings: rat, in vivo
Excerpt: D-Phenylalanine was able to lower systolic blood pressure of these rats close to normal (average drop of 36.7 mm Hg). It is noteworthy that this effect is blocked by the narcotic antagonist and the effect on blood pressure is synergistic with the beta-blocker popranolol. Even more important is that the lowering of blood pressure by d-phenylalanine lasted several days.

[20] = test system: mice; settings: animal tests; cited from earlier work
[21] = test system: mice; settings: cited from earlier work; remark: listed apart in the source
[22] = test system: adult albino rats; settings: 10 day administration, 500 ng/kg per day with the drinking water; cited from earlier work
[23] = test system: common cold; settings: high dose supplementation; cited from earlier work
[24] = molecular target: 5-HTP decarboxylase (Homo sapiens, UniProt P20711); settings: cited from earlier work
[25] = test system: MAO; settings: cited from earlier work
[26] = test system: Blood Brain Barrier (BBB); settings: mice, vs saline controls, cited from earlier work
[27] = molecular target: COMT (Homo sapiens, UniProt P21964); settings: cited from earlier work
[28] = test system: brain of mice; settings: cited from earlier work
[29] = test system: humans; settings: in vivo; cited from earlier work
[30] = test system: alcoholics; settings: in vivo; cited from earlier work
[31] = test system: cell culture; settings: concentrations thousands of times higher than physiological levels; cited from earlier work
[32] = test system: allergy tested subjects with common cold; settings: lozenges
[33] = homozygous mu-opioid receptor knockout mice
[34] = wild type (and heterozygous) mice
[35] = mu-opioid receptor knockout mice

Chain of COMT (P21964 whole entry, species assumed): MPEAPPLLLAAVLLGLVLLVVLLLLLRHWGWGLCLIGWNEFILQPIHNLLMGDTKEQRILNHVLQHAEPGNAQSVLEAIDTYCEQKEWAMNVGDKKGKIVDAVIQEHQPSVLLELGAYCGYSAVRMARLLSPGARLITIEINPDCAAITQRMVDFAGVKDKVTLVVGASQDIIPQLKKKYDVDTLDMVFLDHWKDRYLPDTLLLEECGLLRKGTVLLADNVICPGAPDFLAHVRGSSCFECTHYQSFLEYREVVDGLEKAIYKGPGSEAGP
Chain of mu-opioid receptor (P42866 whole entry): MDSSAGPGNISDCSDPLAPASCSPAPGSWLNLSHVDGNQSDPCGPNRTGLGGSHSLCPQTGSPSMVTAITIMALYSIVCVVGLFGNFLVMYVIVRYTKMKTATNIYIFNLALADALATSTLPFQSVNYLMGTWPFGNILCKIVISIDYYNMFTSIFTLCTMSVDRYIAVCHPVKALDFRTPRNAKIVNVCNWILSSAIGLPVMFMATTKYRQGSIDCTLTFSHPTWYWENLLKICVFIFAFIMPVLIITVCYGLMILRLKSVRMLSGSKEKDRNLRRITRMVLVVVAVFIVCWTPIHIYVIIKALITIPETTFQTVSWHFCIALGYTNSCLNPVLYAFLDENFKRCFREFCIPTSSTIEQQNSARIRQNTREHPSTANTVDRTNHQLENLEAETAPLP
Chain of 5-HTP decarboxylase (P20711 whole entry): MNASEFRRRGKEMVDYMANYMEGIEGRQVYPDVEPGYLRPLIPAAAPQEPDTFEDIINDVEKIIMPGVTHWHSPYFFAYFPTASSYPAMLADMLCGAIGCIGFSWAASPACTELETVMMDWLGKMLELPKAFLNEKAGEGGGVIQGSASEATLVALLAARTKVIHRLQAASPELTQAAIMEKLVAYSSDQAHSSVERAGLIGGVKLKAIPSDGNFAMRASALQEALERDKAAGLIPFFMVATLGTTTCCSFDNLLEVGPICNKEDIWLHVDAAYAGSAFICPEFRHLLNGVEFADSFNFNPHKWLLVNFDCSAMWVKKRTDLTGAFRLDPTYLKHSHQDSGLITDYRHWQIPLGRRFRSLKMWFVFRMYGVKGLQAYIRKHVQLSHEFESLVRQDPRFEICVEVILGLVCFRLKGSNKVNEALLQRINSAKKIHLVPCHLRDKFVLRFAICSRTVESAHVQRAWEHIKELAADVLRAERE

Molecule: NC(Cc1ccccc1)C(=O)O (racemic) [DL-phenylalanine]
- anxiety [1]: reduced anxiety
- mood [1]: increased the mood
- alcohol intake [2]: significantly lowered

Molecule: methionine-enkephalin
- blood flow in specific brain sites (basal ganglia, frontal cortex, hippocampus) [3]: enhancement of blood flow

Molecule: CN1CCc2cccc3c2[C@H]1Cc1ccc(O)c(O)c1-3 [apomorphine]
- rewarding actions [4]: have rewarding actions

Molecule: C/C=C1\[C@H]2C=C(C)C[C@]1(N)c1ccc(=O)[nH]c1C2 [Huperzine A]
- glutamate-induced cellular death of neurons [5]: blocked
- difference between amounts effective for memory and learning and the non-toxic-effect dose ([6]; behavioral studies in animals): 30-100 fold
- side effects ([6]; dose of 2 micrograms/kg): no remarkable side effects
- time active ([7]; dose of 2 micrograms/kg): six hours
- duration of action [7]: 3 h

Molecule: Tyr-Arg [Kyotorphin]
- analgesic activity [8]: analgesic
- intracellular calcium [9]: enhance intracellular calcium

Molecule: O=C(O)CCc1ccccc1 [hydrocinnamic acid]
- alcohol intake [2]: significantly lowered

Molecule: Huperzine
- learning and memory [10]: improves learning and memory

Molecule: [Zn+2] [zinc ions]
- rhinovirus replication [11]: inhibit
- inhibition of aminotripepidase [12]: potent inhibitor

Molecule: CC(C)CC(N)C(=O)O (racemic) [DL-leucine]
- alcohol intake [2]: significantly lowered

Molecule: [Ca+2] [calcium]
- rate of reported symptoms relative to placebo [13]: fifty percent

Molecule: C[C@@H](NC(=O)[C@@H](N)Cc1ccc(O)cc1)C(=O)NCC(=O)N(C)[C@@H](Cc1ccccc1)C(=O)NCCO [DAMGO]
- [35S]GTPgammaS binding [14]: concentration-dependent Increases

Molecule: DPDPE
- withdrawal responses to mechanical stimuli [15, 33]: not
- withdrawal responses to mechanical stimuli [15, 34]: reduced

Molecule: N[C@H](Cc1ccccc1)C(=O)O [D-phenylalanine]
- effect on blood pressure in normotensive individuals [16]: no effect
- duration of blood pressure lowering ([16]; humans): one or more days
- tolerance or addiction ([17]; animals and man): without developing tolerance or addiction
- duration of analgesia ([17]; humans): very long-lasting
- analgesia ([17]; animals and man): excellent analgesia
- pain associated with osteo- and rheumatoid arthritis ([18]; cross-over studies in humans): reduced pain
- analgesia in patients reactive to approved analgesic drugs including opiates ([18]; double-blind studies): induced analgesia
- analgesic effects of acupuncture ([18]; in vivo): enhance
- average drop of systolic blood pressure [19]: 36.7 mm Hg
- duration of lowering of blood pressure [19]: several days
- effect on blood pressure in presence of narcotic antagonist [19]: blocked
- effect on blood pressure with the beta-blocker popranolol [19]: synergistic
- heart rate [19]: no change
- systolic and diastolic blood pressure [19]: significantly lowered
- alcohol intake [2]: significantly lowered
- anti-inflammatory character [20]: exhibits anti-inflammatory character

Molecule: CN1CC[C@]23c4c5ccc(O)c4O[C@H]2[C@@H](O)C=C[C@H]3[C@H]1C5 [Morphine]
- withdrawal responses to mechanical stimuli [15, 33]: no significant effect
- withdrawal responses to mechanical stimuli [15, 34]: dose-dependent reduction
- writhing responses [21, 35]: ineffective
- writhing responses ([21]; wild-type mice): effective

Molecule: NC(=O)CC[C@H](N)C(=O)O [1-glutamine]
- content of glutamate, GABA and taurine in the brain [22]: significant increase

Molecule: Tyr-D-arg
- analgesic activity [8]: analgesic
- intracellular calcium [9]: enhance intracellular calcium

Molecule: O=C(CCCN1CCC(O)(c2ccc(Cl)cc2)CC1)c1ccc(F)cc1 [haloperidol]
- alcohol and cocaine self-administration ([4]; animals): atenuate or block

Molecule: O=C1O[C@H]([C@@H](O)CO)C(O)=C1O [vitamin C]
- decrease of incidence of the common cold [23]: no evidence

Molecule: OC[C@H]1O[C@@H](OCCc2ccc(O)cc2)[C@H](O)[C@@H](O)[C@@H]1O [SAL, Salidosid]
- activity of 5-HTP decarboxylase [24]: does not alter
- MAO activity [25]: inhibit; also recorded: decreases MAO activity
- increase of the rise in serotonin ([26]; SAL 30 mg/Kg with 5-HTP 100 mg/kg): 13%
- increase of the rise in exogenous DOPA ([26]; SAL 30 mg/Kg with L-Dopa 50 mg/kg): 26%
- COMT activity [27]: inhibit; also recorded: inhibits COMT activity
- disulfuram-induced decrease of NE in the brain ([28]; 30 mg/kg, animals): prevented
- decrease of content of 5-HT ([28]; 30 mg/kg): 15%
- decrease of content of NE ([28]; 30 mg/kg): 26%
- decrease of concentration of Dopamine ([28]; 100 mg/kg): 28%
- decrease of concentration of NE ([28]; 100 mg/kg): 20%
- decrease of concentration of serotonin ([28]; 100 mg/kg): 23%
- levels of epinephrine and DOPA ([28]; mouse, in vivo): did not alter

Molecule: CC(C)C[C@H]1C(=O)N2CCC[C@H]2[C@]2(O)O[C@](NC(=O)[C@@H]3C=C4c5cccc6[nH]c(Br)c(c56)C[C@H]4N(C)C3)(C(C)C)C(=O)N12 [bromocriptine]
- short term memory [29]: increase short term memory
- reducing relapse rates as a function of dopamine D2 receptor genotype [30]: selective positive effect
- rewarding actions [4]: have rewarding actions

Molecule: CC(C)C[C@@H](N)C(=O)O [D-leucine]
- analgesia ([17]; animals and man): excellent analgesia
- alcohol intake [2]: significantly lowered

Molecule: trivalent chromium
- chromosome breakage [31]: can break chromosomes

Molecule: C=CCN1C[C@H](C)N([C@H](c2ccc(C(=O)N(CC)CC)cc2)c2cccc(OC)c2)C[C@H]1C [SNC8O]
- writhing responses [21, 35]: ineffective
- writhing responses ([21]; wild-type mice): effective

Molecule: CC(=O)[O-].CC(=O)[O-].[Zn+2] [Zinc acetate]
- duration of common cold symptoms [32]: significantly shortened
- symptoms associated with allergies [32]: re3lieved

Molecule: Nc1c2c(nc3ccccc13)CCCC2 [Cognex]
- duration of action [7]: 2 h
